Laboratory results published in patent publication US12421211B2, “Heterocyclic compounds” (Hoffmann-La Roche Inc., priority 2021, dated 2025).
Converted amounts (≈) assume the structure as drawn. Where a name gives a salt, the structure may show the parent alone. Read-outs that look alike come from different tables or passages of the source.

Key:
[1] = test system: Acinetobacter baumannii ATCC17961; assay: Antimicrobial susceptibility testing: 90% growth inhibitory concentration (IC90) determination; format: cell-based; conditions: read-out: ATCC 17961 IC90
In short: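 Growth inhibition derived in log phase from OD600 kinetics (every 20 minutes, 16h, 35±2° C) of ATCC17961 in Iso-Sensitest medium, inoculum ~5×10^5 CFU/ml. Compounds tested as twofold series, 10 points (e.g. 50 to 0.097 μM final); IC90 and IC50 reported.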

[2] = test system: Acinetobacter baumannii ATCC17978; assay: Minimal Inhibitory Concentration (MIC) assay; format: cell-based; conditions: read-out: MIC AB. ATCC17978
Protocol: Minimal Inhibitory Concentration Protocol (MIC) Assay:
Table 2 provides the in vitro potency of the compounds of present invention obtained against the strain Acinetobacter baumannii ATCC17978, which was assessed by an MIC (Minimal Inhibitory Concentration) assay as follows.
Test compounds were prepared from 10 mM DMSO stock solutions. The top dose was diluted from 10 mM to 2.5 mM by DMSO, followed by serial 2-fold 11 points dilutions in DMSO in a master plate (Greiner, Cat No: 651201). 2 μL compounds were transferred from the master plate into a new 96-well assay plate (Costar, 3599).
The growth medium […] Mueller Hinton Broth (CAMHIB) was prepared by adding 22 g powder (BD, 212322) in 1 L purified water, autoclaved, and supplemented with sterilized CaCl2 (20 mg per liter) and MgCl2 (10 mg per liter).
Vials of each of the test microorganisms were maintained frozen in the vapor phase of a liquid nitrogen freezer. Took out the bacterial strain ATCC 17978 from liquid nitrogen freezer, thawed it at room temperature, and diluted the bacterial in the CAMHB medium to achieve a final inoculum of 2×10^5 CFU/mL. 98 μL of the adjusted bacteria suspension was dispensed to the assay plate and pipetted 5 times.
Then the assay plates were incubated for 20 hours at 35±2° C. in ambient air with humidity. Following incubation, MIC […] value, the lowest concentration of drug that inhibits visible growth of the microorganism, was recorded by visual judgment of bacterial growth through magnification mirror of MIC reader, and the assay plates were photographed with Qcount system as image raw data. Meanwhile, the D600 of assay plates was recorded with SpectraMax Plus384 as GD raw data.

[3] = Acinetobacter baumannii ATCC17978, CAMHB medium, 20 hours at 35±2° C., visual reading

MIC [2, 3] [µM] | Molecule | also measured
1.2 | COCCn1nc(C)c(-c2ccc(-c3cnc(C(=O)Nc4ccc(C(=O)N5CCN(C(=O)C[N+]6(C)C[C@@H](O)[C@H](O)C6)CC5)c(Cl)c4)n3C)c(F)c2F)c1C (racemic) [Example C12, N-[3-chloro-4-[4-[2-[(3R,4R)-3,4-dihydroxy-1-methyl-pyrrolidin-1-ium-1-yl]acetyl]piperazine-1-carbonyl]phenyl]-5-[2,3-difluoro-4-[1-(2-methoxyethyl)-3,5-dimethyl-pyrazol-4-yl]phenyl]-1-methyl-imidazole-2-carboxamide; formate] | IC90 ([1]; Acinetobacter baumannii, ATCC17961, 16 h, 90% growth inhibitory concentration, Acinetobacter baumannii ATCC17961, Iso-Sensitest broth, OD 600 nm over 16 h): 153 nM
1.22 | COCCn1nc(C)c(-c2ccc(-c3cnc(C(=O)Nc4ccc(C(=O)N5CCN(C(=O)C[N+]6(C)C[C@@H](N)[C@H](OC)C6)CC5)c(Cl)c4)n3C)c(F)c2F)c1C (mixture of isomers) [Example C13, N-[4-[4-[2-[(3R,4R)-3-amino-4-methoxy-1-methyl-pyrrolidin-1-ium-1-yl]acetyl]piperazine-1-carbonyl]-3-chloro-phenyl]-5-[2,3-difluoro-4-[1-(2-methoxyethyl)-3,5-dimethyl-pyrazol-4-yl]phenyl]-1-methyl-imidazole-2-carboxamide; formic acid; formate] | 
 | COCCn1ncc(-c2ccc(-c3cnc(C(=O)Nc4ccc(C(=O)N5CCN(C(=O)C6CC[N+](C)(CCS(N)(=O)=O)CC6)CC5)c(Cl)c4)n3C)c(F)c2F)c1C (centres unmarked) [Example B34, N-[3-chloro-4-[4-[1-methyl-1-(2-sulfamoylethyl)piperidin-1-ium-4-carbonyl]piperazine-1-carbonyl]phenyl]-5-[2,3-difluoro-4-[1-(2-methoxyethyl)-5-methyl-pyrazol-4-yl]phenyl]-1-methyl-imidazole-2-carboxamide; formate] | MIC ([2]; Acinetobacter baumannii, ATCC17978, 20 h): 0.65 µM
1.07 | Cc1n[nH]cc1-c1ccc(-c2cnc(C(=O)Nc3ccc(C(=O)N4CCN(C(=O)[C@@H]5C[C@@H](O)C[N+]5(C)C)CC4)c(Cl)c3)n2C)c(F)c1F [Example D19, N-[3-chloro-4-[4-[(2S,4R)-4-hydroxy-1,1-dimethyl-pyrrolidin-1-ium-2-carbonyl]piperazine-1-carbonyl]phenyl]-5-[2,3-difluoro-4-(3-methyl-1H-pyrazol-4-yl)phenyl]-1-methyl-imidazole-2-carboxamide; formate] | 
0.56 (≈ 0.4 µg/mL) | Cc1c(-c2ccc(-c3cnc(C(=O)Nc4ccc(C(=O)N5CCN(C(=O)C6CCNCC6)CC5)c(Cl)c4)n3C)c(F)c2F)cnn1CC(F)F [Example E1, N-[3-chloro-4-[4-(piperidine-4-carbonyl)piperazine-1-carbonyl]phenyl]-5-[4-[1-(2,2-difluoroethyl)-5-methyl-pyrazol-4-yl]-2,3-difluoro-phenyl]-1-methyl-imidazole-2-carboxamide] | 
0.57 (≈ 0.414 µg/mL) | COCCn1ncc(-c2ccc(-c3cnc(C(=O)Nc4ccc(C(=O)N5CCN(C(=O)C6CCNCC6)CC5)c(Cl)c4)n3C)c(Cl)c2F)c1C [Example E4, 5-[2-chloro-3-fluoro-4-[1-(2-methoxyethyl)-5-methyl-pyrazol-4-yl]phenyl]-N-[3-chloro-4-[4-(piperidine-4-carbonyl)piperazine-1-carbonyl]phenyl]-1-methyl-imidazole-2-carboxamide; formic acid] | 
1.41 | Cn1c(-c2ccc(-c3cn(C[C@H](O)CO)nc3C(F)(F)F)c(F)c2F)cnc1C(=O)Nc1ccc(C(=O)N2CCN(C(=O)C3CC[N+](C)(C)CC3)CC2)c(Cl)c1 [Example F8, N-[3-chloro-4-[4-(1,1-dimethylpiperidin-1-ium-4-carbonyl)piperazine-1-carbonyl]phenyl]-5-[4-[1-[(2S)-2,3-dihydroxypropyl]-3-(trifluoro-methyl)pyrazol-4-yl]-2,3-difluoro-phenyl]-1-methyl-imidazole-2-carboxamide; formate] | 
2.31 | Cn1c(-c2ccc(-c3cn[nH]c3CCCCO)c(F)c2F)cnc1C(=O)Nc1ccc(C(=O)N2CCN(C(=O)C3CC[N+](C)(C)CC3)CC2)c(Cl)c1 [Example F21, N-[3-chloro-4-[4-(1,1-dimethylpiperidin-1-ium-4-carbonyl)piperazine-1-carbonyl]phenyl]-5-[2,3-difluoro-4-[5-(4-hydroxybutyl)-1H-pyrazol-4-yl]phenyl]-1-methyl-imidazole-2-carboxamide; formate] | 
1.24 | Cn1c(-c2ccc(-c3cn(CC(N)=O)nc3C(F)(F)F)c(F)c2F)cnc1C(=O)Nc1ccc(C(=O)N2CCN(C(=O)C3CC[N+](C)(C)CC3)CC2)c(Cl)c1 [Example F35, 5-[4-[1-(2-amino-2-oxo-ethyl)-3-(trifluoromethyl)pyrazol-4-yl]-2,3-difluoro-phenyl]-N-[3-chloro-4-[4-(1,1-dimethylpiperidin-1-ium-4-carbonyl)piperazine-1-carbonyl]phenyl]-1-methyl-imidazole-2-carboxamide; formate] | 
0.32 | Cc1nn(CC(=O)Nc2ccccc2)cc1-c1ccc(-c2cnc(C(=O)Nc3ccc(C(=O)N4CCN(C(=O)C5CC[N+](C)(C)CC5)CC4)c(Cl)c3)n2C)c(F)c1F [Example G5, 5-[4-[1-(2-anilino-2-oxo-ethyl)-3-methyl-pyrazol-4-yl]-2,3-difluoro-phenyl]-N-[3-chloro-4-[4-(1,1-dimethylpiperidin-1-ium-4-carbonyl)piperazine-1-carbonyl]phenyl]-1-methyl-imidazole-2-carboxamide; formate] | 
0.32 | Cc1c(-c2ccc(-c3cnc(C(=O)Nc4ccc(C(=O)N5CCN(C(=O)C6CC[N+](C)(C)CC6)CC5)c(Cl)c4)n3C)c(F)c2F)cnn1CC(=O)Nc1ccccn1 [Example G19, N-[3-chloro-4-[4-(1,1-dimethylpiperidin-1-ium-4-carbonyl)piperazine-1-carbonyl]phenyl]-5-[2,3-difluoro-4-[5-methyl-1-[2-oxo-2-(2-pyridylamino)ethyl]pyrazol-4-yl]phenyl]-1-methyl-imidazole-2-carboxamide; formate] | 
2.52 | Cc1nn(CC(=O)NC2CCOC2)cc1-c1ccc(-c2cnc(C(=O)Nc3ccc(C(=O)N4CCN(C(=O)C5CC[N+](C)(C)CC5)CC4)c(Cl)c3)n2C)c(F)c1F (centres unmarked) [Example G20, N-[3-chloro-4-[4-(1,1-dimethylpiperidin-1-ium-4-carbonyl)piperazine-1-carbonyl]phenyl]-5-[2,3-difluoro-4-[3-methyl-1-[2-oxo-2-(tetrahydrofuran-3-ylamino)ethyl]pyrazol-4-yl]phenyl]-1-methyl-imidazole-2-carboxamide; formate] | 
2.57 | Cc1nn(CC(=O)NC2CCCCO2)cc1-c1ccc(-c2cnc(C(=O)Nc3ccc(C(=O)N4CCN(C(=O)C5CC[N+](C)(C)CC5)CC4)c(Cl)c3)n2C)c(F)c1F (centres unmarked) [Example G21, N-[3-chloro-4-[4-(1,1-dimethylpiperidin-1-ium-4-carbonyl)piperazine-1-carbonyl]phenyl]-5-[2,3-difluoro-4-[3-methyl-1-[2-oxo-2-(tetrahydropyran-2-ylamino)ethyl]pyrazol-4-yl]phenyl]-1-methyl-imidazole-2-carboxamide; formate] | 
0.58 | Cn1c(-c2ccc(-c3cn[nH]c3-c3cscn3)c(F)c2F)cnc1C(=O)Nc1ccc(C(=O)N2CCN(C(=O)C3CC[N+](C)(C)CC3)CC2)c(Cl)c1 [Example I5, N-[3-chloro-4-[4-(1,1-dimethylpiperidin-1-ium-4-carbonyl)piperazine-1-carbonyl]phenyl]-5-[2,3-difluoro-4-(5-thiazol-4-yl-1H-pyrazol-4-yl)phenyl]-1-methyl-imidazole-2-carboxamide; formate] | 
 | COCCn1cc(-c2ccc(-c3cnc(C(=O)Nc4ccc(C(=O)N5CCN(C(=O)[C@H]6CC[N@+](CC(=O)O)(CC7CNC7)CC6)CC5)c(Cl)c4)n3C)c(F)c2F)c(C)n1 [Example Q4, cis 2-[1-(azetidin-3-ylmethyl)-4-[4-[2-chloro-4-[[5-[2,3-difluoro-4-[1-(2-methoxyethyl)-3-methyl-pyrazol-4-yl]phenyl]-1-methyl-imidazole-2-carbonyl]amino]benzoyl]piperazine-1-carbonyl]piperidin-1-ium-1-yl]acetic acid formate;] | IC90 ([1]; Acinetobacter baumannii, ATCC17961, 16 h): 195 nM
 | cis 2-[1-(azetidin-3-ylmethyl)-4-[4-[2-chloro-4-[[5-[3-fluoro-4-[1-(2-methoxyethyl)-3-methyl-pyrazol-4-yl]phenyl]-1-methyl-imidazole-2-carbonyl]amino]benzoyl]piperazine-1-carbonyl]piperidin-1-ium-1-yl]acetic acid; 2,2,2-trifluoroacetate [Example O7] | IC90 ([1]; 90% growth inhibitory concentration, Acinetobacter baumannii ATCC17961, Iso-Sensitest broth, OD 600 nm over 16 h): 140 nM
